Results on 9 compounds are retold here after ChEMBL document CHEMBL4393680, “Design, synthesis and biological evaluation of novel thioquinazolinone-based 2-aminobenzamide derivatives as potent histone deacetylase (HDAC) inhibitors” (Eur J Med Chem, 2019).

For orientation: IC50 means the point on the concentration scale where inhibition reaches its midpoint. By inhibition is commonly meant the change of the read-out against control, counted positive when it falls.

Molecules are shown by their SMILES.

Assay [1] relates to SMMC-7721. The assay can be described thus: Antiproliferative activity against human SMMC7721 cells assessed as reduction in cell growth incubated for 72 hrs by CCK-8 assay. It is filed as functional, cell-based. The conditions noted are these: SMMC-7721, 72 h. On the technique in general: Tetrazolium dyes change colour on reduction, which living cells bring about.
Assay [2] deals with A-375. Kind of assay: Antiproliferative activity against human A375 cells assessed as reduction in cell growth at 8 uM incubated for 72 hrs by CCK-8 assay relative to control. As to conditions: A-375, 72 h. It counts as functional.
For assay [3], the system named is A-375. The assay can be described thus: Antiproliferative activity against human A375 cells assessed as reduction in cell growth at 2 uM incubated for 72 hrs by CCK-8 assay relative to control. It is filed as functional. As to conditions: A-375, 72 h.
Assay [4] concerns HeLa. The assay can be described thus: Antiproliferative activity against human HeLa cells assessed as reduction in cell growth at 8 uM incubated for 72 hrs by CCK-8 assay relative to control. It counts as functional.
For assay [5], the system named is HeLa. Kind of assay: Antiproliferative activity against human HeLa cells assessed as reduction in cell growth at 2 uM incubated for 72 hrs by CCK-8 assay relative to control. It is filed as functional.
For assay [6], the system named is A549. The assay can be described thus: Antiproliferative activity against human A549 cells assessed as reduction in cell growth at 8 uM incubated for 72 hrs by CCK-8 assay relative to control. It counts as functional. As to conditions: A549, 72 h.
Assay [7] deals with A549. The assay can be described thus: Antiproliferative activity against human A549 cells assessed as reduction in cell growth at 2 uM incubated for 72 hrs by CCK-8 assay relative to control. It is filed as functional. The conditions noted are these: A549, 72 h.
Assay [8] has as its system HCT-116. Kind of assay: Antiproliferative activity against human HCT116 cells assessed as reduction in cell growth at 8 uM incubated for 72 hrs by CCK-8 assay relative to control. The conditions noted are these: HCT-116, 72 h. It counts as functional.
The subject of assay [9] is HCT-116. The assay can be described thus: Antiproliferative activity against human HCT116 cells assessed as reduction in cell growth at 2 uM incubated for 72 hrs by CCK-8 assay relative to control. It counts as functional. The conditions noted are these: HCT-116, 72 h.
For assay [10], the system named is SMMC-7721. Kind of assay: Antiproliferative activity against human SMMC7721 cells assessed as reduction in cell growth at 8 uM incubated for 72 hrs by CCK-8 assay relative to control. It is filed as functional. As to conditions: SMMC-7721, 72 h.
Assay [11] has as its system SMMC-7721. The assay can be described thus: Antiproliferative activity against human SMMC7721 cells assessed as reduction in cell growth at 2 uM incubated for 72 hrs by CCK-8 assay relative to control. It counts as functional. As to conditions: SMMC-7721, 72 h.
The subject of assay [12] is A-375. The assay can be described thus: Antiproliferative activity against human A375 cells assessed as reduction in cell growth incubated for 72 hrs by CCK-8 assay. The conditions noted are these: A-375, 72 h. It counts as functional, cell-based.
Assay [13] has as its system HeLa. Kind of assay: Antiproliferative activity against human HeLa cells assessed as reduction in cell growth incubated for 72 hrs by CCK-8 assay. It counts as functional, cell-based.
Assay [14] concerns HCT-116. Kind of assay: Antiproliferative activity against human HCT116 cells assessed as reduction in cell growth incubated for 72 hrs by CCK-8 assay. It counts as functional, cell-based. As to conditions: HCT-116, 72 h.
The test system of assay [15] is A549. The assay can be described thus: Antiproliferative activity against human A549 cells assessed as reduction in cell growth incubated for 72 hrs by CCK-8 assay. It counts as functional, cell-based. The conditions noted are these: A549, 72 h.

Regarding `Cc1ccc2c(=O)n(C)c(SCc3ccc(C(=O)Nc4ccccc4N)cc3)nc2c1`, the IC50 turned out to be 3620 nM in the assay on SMMC-7721 [1], 1190 nM with A-375 [12], 3.12 µM in the assay on HeLa [13] and 2470 nM in the assay on HCT-116 [14]. In addition, the inhibition at 8 µM in the assay on A-375 [2] stood at 88.2%; with HeLa [4], 84.3%; in the assay on A549 [6], 52.7%; in the assay on HCT-116 [8] it was 74.9%; in the assay on SMMC-7721 [10], 78.9%. The inhibition at 2 µM with A-375 [3] was 52.9%; in the assay with HeLa [5] it was 59.8%; in the assay with A549 [7], 23.3%; in the assay on HCT-116 [9], 59.8%; in the assay with SMMC-7721 [11], 41.7%.
As for `COc1ccc2c(=O)n(CCCC[S+](C)[O-])c(SCc3ccc(/C=C/C(=O)Nc4ccccc4N)cc3)nc2c1` (configuration not stated), the inhibition at 8 µM in the assay on A-375 [2] was determined as 18.8%; in the assay with HeLa [4], 41%; in the assay with A549 [6], 62.7%; in the assay on HCT-116 [8] it was 8.6%; in the assay on SMMC-7721 [10] it was 9.9%. Also, the inhibition at 2 µM is 13.2% in the assay on A-375 [3]; 1.1% with HeLa [5]; 53.8% in the assay on A549 [7]; 4.5% in the assay on HCT-116 [9]; 3.1% in the assay with SMMC-7721 [11]. In addition, the IC50 with A549 [15] worked out at 20 µM.
Consider `CCCn1c(SCc2ccc(/C=C/C(=O)Nc3ccccc3N)cc2)nc2cc(Cl)ccc2c1=O`, for which the inhibition at 8 µM is 48.2% with A-375 [2]; 41.5% in the assay with HeLa [4]; 61.5% with A549 [6]; 27.3% in the assay on HCT-116 [8]; 40.2% in the assay on SMMC-7721 [10]. Also, the inhibition at 2 µM was determined as 20.5% with A-375 [3]; 32.7% in the assay on HeLa [5]; 34.3% with A549 [7]; 18.2% with HCT-116 [9]; 6.6% with SMMC-7721 [11]. The IC50 in the assay on A549 [15] stood at 3.96 µM.
`Cn1c(SCc2ccc(C(=O)Nc3ccccc3N)cc2)nc2cc(F)ccc2c1=O`: the IC50 came to 900 nM in the assay with SMMC-7721 [1], 3280 nM in the assay with A-375 [12], 4.81 µM in the assay with HeLa [13] and 2710 nM with HCT-116 [14]. Besides, the inhibition at 8 µM was 64.3% in the assay with A-375 [2]; 84.6% with HeLa [4]; 45% with A549 [6]; 79.7% in the assay with HCT-116 [8]; 75.1% in the assay with SMMC-7721 [10]. The inhibition at 2 µM in the assay with A-375 [3] turned out to be 30%; with HeLa [5], 39.7%; in the assay with A549 [7], 21.3%; with HCT-116 [9], 51.7%; with SMMC-7721 [11] it was 52.5%.
Turning to `COc1ccc2c(=O)n(CC/C=C/[S+](C)[O-])c(SCc3ccc(C(=O)Nc4ccccc4N)cc3)nc2c1` (configuration not stated), the inhibition at 8 µM worked out at 67.2% with A-375 [2]; 74.1% in the assay with HeLa [4]; 56.3% in the assay on A549 [6]; 88% in the assay with HCT-116 [8]; 57.2% in the assay on SMMC-7721 [10]. Also, the inhibition at 2 µM turned out to be 34.4% in the assay with A-375 [3]; 35.8% in the assay on HeLa [5]; 36.9% in the assay with A549 [7]; 59% with HCT-116 [9]; 6.9% in the assay with SMMC-7721 [11]. In addition, the IC50 in the assay with A-375 [12] was found to be 2820 nM; in the assay on HeLa [13] it was 2.69 µM; with A549 [15] it was 6.62 µM; in the assay on HCT-116 [14], 1590 nM.
`Cn1c(SCc2ccc(/C=C/C(=O)Nc3ccccc3N)cc2)nc2cc(Cl)ccc2c1=O`: the inhibition at 8 µM in the assay on A-375 [2] came out at 10.2%; with HeLa [4] it was 38.8%; with A549 [6], 68.8%; in the assay on HCT-116 [8] it was 21.5%; in the assay on SMMC-7721 [10] it was 20.9%. The inhibition at 2 µM in the assay on A-375 [3] is 2.4%; in the assay with HeLa [5], 29.3%; in the assay on A549 [7], 15.5%; in the assay on HCT-116 [9], 2.1%; in the assay with SMMC-7721 [11] it was 7.8%. Moreover, the IC50 in the assay with A549 [15] was 16.4 µM.
`Cc1cccc2c(=O)n(C)c(SCc3ccc(C(=O)Nc4ccccc4N)cc3)nc12`: the IC50 came out at 2670 nM in the assay with SMMC-7721 [1], 5260 nM with A-375 [12], 8.44 µM with A549 [15] and 3060 nM with HCT-116 [14]. The inhibition at 8 µM in the assay with A-375 [2] came out at 54.9%; in the assay on HeLa [4], 51.4%; in the assay on A549 [6], 66.8%; in the assay on HCT-116 [8], 76.4%; in the assay with SMMC-7721 [10] it was 74.4%. Besides, the inhibition at 2 µM turned out to be 48.3% in the assay on A-375 [3]; 47.3% in the assay on HeLa [5]; 38% in the assay with A549 [7]; 42.7% with HCT-116 [9]; 54.3% with SMMC-7721 [11].
For the compound `Cn1c(SCc2ccc(C(=O)Nc3ccccc3N)cc2)nc2cc(Cl)ccc2c1=O`, the IC50 with SMMC-7721 [1] turned out to be 3320 nM; in the assay on A-375 [12], 3010 nM; in the assay on HeLa [13], 4.99 µM; in the assay with HCT-116 [14], 2220 nM. Further, the inhibition at 8 µM in the assay with A-375 [2] came out at 51.2%; with HeLa [4], 76.5%; with A549 [6], 22.3%; with HCT-116 [8], 81.5%; in the assay with SMMC-7721 [10] it was 73.2%. Further, the inhibition at 2 µM with A-375 [3] came to 44.5%; in the assay with HeLa [5] it was 51.1%; with A549 [7], 21.8%; in the assay on HCT-116 [9], 58.7%; in the assay on SMMC-7721 [11], 38.9%.
On to `Cc1ccc2nc(SCc3ccc(C(=O)Nc4ccccc4N)cc3)n(C)c(=O)c2c1`, for which the IC50 was determined as 1670 nM in the assay on SMMC-7721 [1], 2570 nM in the assay with A-375 [12], 0.95 µM in the assay with HeLa [13] and 2010 nM in the assay on HCT-116 [14]. For the same compound, the inhibition at 8 µM in the assay with A-375 [2] came out at 73.6%; with HeLa [4] it was 85.5%; with A549 [6] it was 33.9%; in the assay on HCT-116 [8], 79.3%; with SMMC-7721 [10], 75.7%. For the same compound, the inhibition at 2 µM stood at 44.6% in the assay with A-375 [3]; 63% in the assay on HeLa [5]; 18.2% with A549 [7]; 49.2% with HCT-116 [9]; 65.6% in the assay on SMMC-7721 [11].
